# Columns and labels:
# Type in all cases: cell-based, human
# [1] = tested on: aggregates (NR), KhES-1-derived neural retinal tissues; experiment: Study on enhancement in CD39 expression, FACS (Example 25); conditions: added Day 17 to Day 25; DMSO control
# Description: For aggregates (NR) prepared by adding 300 nM SAG at the start of differentiation (dd0), 10 neural retinal tissues were transferred to low adhesive 60-mm Petri dish for suspension culture (manufactured by Sumitomo Bakelite Co., Ltd.) on Day 17 from initiation of the suspension culture. 1 mM or 0.2 mM adenosine (A2A receptor agonist, manufactured by Sigma-Aldrich Co. LLC), 1 mM, 0.2 mM, or 0.04 mM AMP-PNP (manufactured by Tocris Bioscience), 5 mM, 1 mM, 0.2 mM, or 0.04 mM ATP disodium salt (manufactured by Tocris Bioscience), and 1μ, 0.2μ, or 0.04μ M CGS 21680 (Adenosine A2A Receptor Agonist, manufactured by Tocris Bioscience) were added into 4 mL of NucT0 medium. Culture was performed up to Day 25 from initiation of the suspension culture. Change in expression of CD39 and CXCR4 was stained using Mouse IgG1-APC conjugate antibody (Miltenyi Biotec), anti-CD39-BV421 conjugate antibody (BD Biosciences) and anti-CXCR4-APC conjugate antibody (Miltenyi Biotec) and measured using FACSCantoII (BD Biosciences), and analysis was conducted using FlowJo. As a control, a DMSO addition group was established.
# [2] = tested on: Rx::Venus-sorted cells (KhES-1-derived NR, Day 25); experiment: Search of factor that maintains property of retina at preparation into sheet again (Example 18); conditions: compared with PBS control; 10 days after seeding
# Description: The aggregates (NR) of Day 25 from initiation of the suspension culture prepared in Example 1 were washed with PBS, and a neuronal cell dispersion solution (manufactured by FUJIFILM Wako Pure Chemical Corp.) was added. After incubation at 37° C., they were dispersed into single cells by pipetting, and sorting was carried out with Rx::Venus as an index using Cell sorter ARIAII (Becton, Dickinson and Company).
# 3 days after seeding, the medium was similarly replaced so as to maintain the concentrations of the low-molecular compounds or the proteins described in Tables 1 and 2. […] 10 days after seeding, fixation was performed in 4% PFA, and the evaluation of the cells after sorting was conducted with Rx::Venus as an index under a fluorescence microscope (BZ-X810 manufactured by Keyence Corp.).
# [3] = tested on: single cells dispersed from KhES-1- and 1231A3-derived aggregates; experiment: Aggregate proliferation-promoting factor: aggregate area in suspension culture with Y-27632 (Example 2); conditions: SAG 300 nM or CHIR99021 3 μM in addition to 10 μM Y-27632; Day 1, 7, 14
# Description: The aggregates of Day 20 (1231A3) and Day 27 (KhES-1) from initiation of the suspension culture prepared as in Example 1 were washed with PBS, and a neuronal cell dispersion solution (manufactured by FUJIFILM Wako Pure Chemical Corp.) was added. After incubation at 37° C., they were dispersed into single cells by pipetting. These cells were suspended in 100 μL of a serum-free medium containing 10 μM Y-27632 (FUJIFILM Wako Pure Chemical Corp.) so as to become 2 to 5×10^5 cells per well of a non-cell adhesive 96-well culture plate (trade name: PrimeSurface 96-well V-bottom plate, manufactured by Sumitomo Bakelite Co., Ltd.), and suspension-cultured at 37° C. and 5% CO2. […] The reformed states of the aggregates were observed under a bright field microscope and a fluorescence microscope (BZ-X810 manufactured by Keyence Corp.) on Day 1, Day 7, and Day 14 after suspension culture for aggregate reforming. The areas of the aggregates were measured in Image J. The results of the KhES-1-derived cells are shown in FIG. 6 (an average value from 12 […] measured). The results of the 1231A3-derived cells in which the reformed states of the aggregates of Day 1 after suspension culture were observed are shown in FIG. 7.
# [4] = tested on: KhES-1 Rx::Venus aggregates (NR) of Day 26; experiment: CD39 expression analysis with different concentrations of SAG at start of differentiation (Example 24)
# Description: The morphology of aggregates (NR) of Day 26 from initiation of the suspension culture prepared by adding (1) 0 nM, (2) 30 nM, or (3) 300 nM SAG at the start of differentiation was observed under a microscope.
# The aggregates were dispersed into single cells using a neuronal cell dispersion solution, and FACS analysis was conducted as to the expression of CD39 and CXCR4 using anti-CD39-APC conjugate antibody (Miltenyi Biotec) and anti-CXCR4-APC conjugate antibody (Miltenyi Biotec). The percentage of an expressing cell population was measured using FACSCantoII (BD Biosciences), and analysis was conducted using FlowJo. These aggregates were fixed in 4% PFA, and sections were prepared and then subjected to staining using anti-ALDH1A1 antibody (R&D Systems, Inc.), anti-CoupTF1 antibody (Perseus Proteomics Inc. (PPMX)), anti-LHX2 antibody (manufactured by Merck Millipore), anti-Chx10 antibody (manufactured by Exalpha Biologicals Inc.), anti-Pax2 antibody (manufactured by Covance), and anti-NKX2.1 antibody (manufactured by Leica).
# [5] = tested on: single cell suspension of dispersed retinal cells (KhES-1-derived); experiment: Layer structure formation-promoting factor: reformed aggregates, immunostained sections (Example 3); conditions: 300 nM SAG in addition to 3 μM CHIR99021
# Description: The aggregates of Day 26 from initiation of the suspension culture prepared as in Example 1 were washed with PBS, and a neuronal cell dispersion solution (manufactured by FUJIFILM Wako Pure Chemical Corp.) was added. After incubation at 37° C., they were dispersed into single cells by pipetting. These cells were suspended in 100 μL of a serum-free medium so as to become 3.0×10^4 cells per well of a non-cell adhesive 96-well culture plate (trade name: PrimeSurface 96-well V-bottom plate, manufactured by Sumitomo Bakelite Co., Ltd.), and suspension-cultured at 37° C. and 5% CO2.
# The aggregates of Day 15 (corresponding to Differentiation Day 41) and Day 28 (corresponding to Differentiation Day 54) after suspension culture for aggregate reforming were fixed in 4% PFA, and frozen sections were prepared. These frozen sections were subjected to immunostaining using DAPI and anti-Chx10 antibody (trade name: Anti CHX10 Antibody, Exalpha Biologicals Inc.), anti-β-catenin antibody (R&D Systems, Inc.), anti-collagen IV antibody (Abcam plc), anti-Zo-1 antibody (Invitrogen Corp.), anti-Ki67 antibody (Becton, Dickinson and Company), anti-Pax6 antibody (BioLegend, Inc.), anti-RxR-γ (RxRg) antibody (Spring Bioscience Corp.), anti-CRX antibody (Abnova Corp.), anti-NRL antibody (R&D Systems, Inc.), anti-recoverin antibody (manufactured by Proteintech Group, Inc.), anti-Islet-1 antibody (Developmental Studies Hybridoma Bank (DSHB)), anti-GS antibody (Sigma-Aldrich Co., LLC), anti-Brn3 antibody (Santa Cruz Biotechnology), and anti-calretinin antibody (R&D Systems, Inc.).
# These immunostained sections were observed under a bright field microscope and a fluorescence microscope (BZ-X810 manufactured by Keyence Corp.) and a confocal laser scanning fluorescence microscope (SP-8 manufactured by Leica), and the results are shown in FIGS. 11 to 20. […] From FIGS. 19 and 20, it was confirmed that RxR-Y(RxRg)-positive and CRX-positive cone progenitor cells and recoverin-positive and CRX-positive photoreceptor progenitor cells were differentiated, and the differentiation of Islet-1-positive and Brn3-positive retinal ganglion cells and calretinin-positive amacrine cells was also confirmed.
# [6] = tested on: retinal progenitor cells dispersed into single cells (KhES-1- and 1231A3-derived aggregates); experiment: Search of aggregate reforming factor: suspension culture of dispersed retinal cells (Example 1); conditions: added at cell seeding; Y-27632 10 μM or 20 μM; Day 1 to Day 2 of suspension culture
# Description: Human ES cells (KhES-1 strain (Non Patent Literature 3)) and human iPS cells (1231A3 strain, Kyoto University) genetically engineered so as to have Rx::Venus reporter gene were cultured under feeder-free conditions in accordance with the method described in “Scientific Reports, 4, 3594 (2014)”. As a feeder-free medium, StemFit medium (trade name: AK03N, manufactured by Ajinomoto Co., Inc.) was used, and as a scaffold as an alternative to feeder cells, Laminin511-E8 (trade name, manufactured by Nippi, Inc.) was used.
# Specific operation of maintenance culture for human ES and human iPS cells (human ES/iPS cells) was performed as follows: First, human ES/iPS cells that reached sub-confluency (state where about 60% of the culture area was covered by cells) were washed with PBS and separated into single cells by use of TrypLE Select (trade name, manufactured by Life Technologies). In this context, the dispersion into single cells refers to performing dispersion so as to become single cells, and a cell population dispersed into single cells is capable of containing a mass of 2 to 50 cells, in addition to single cells. Then, the separated human ES single cells were seeded in plastic culture dishes coated with Laminin 511-E8 and cultured under feeder-free conditions in StemFit medium in the presence of Y-27632 (ROCK inhibitor, 10 μM). […]
# [7] = tested on: Rx::Venus-positive cells (KhES-1-derived); experiment: Maintenance culture of retinal cell in Rx::Venus strain (Example 13); conditions: 20 ng/ml continuously added; after 34 days
# Description: The aggregates of Day 31 from initiation of the suspension culture prepared as in Example 1 were washed with PBS, and a neuronal cell dispersion solution (manufactured by FUJIFILM Wako Pure Chemical Corp.) was added. After incubation at 37° C., they were dispersed into single cells by pipetting.
# After 34 days, cell sheets were fixed in 4% PFA, and the nuclei were stained using DAPI. Observation was made focusing on the areas of Rx::Venus-positive cells, and the state of maintenance of retinal cells was studied.
compound,measurement,setting,value
Nc1ncnc2c1ncn2[C@@H]1O[C@H](COP(=O)(O)OP(=O)([O-])OP(=O)([O-])O)[C@@H](O)[C@H]1O.[Na+].[Na+] [ATP],expression of CD39 (FACS),[1],enhancing the expression of CD39
same,expression of CXCR4 (FACS),[1],decreasing the expression of CXCR4
"O=C(Nc1cccc2cccnc12)c1ccc(N2C(=O)[C@@H]3[C@H](C2=O)[C@@H]2C=C[C@H]3C2)cc1 [IWR1 endo, 4-[(3aR,4S,7R,7aS)-1,3,3a,4,7,7a-hexahydro-1,3-dioxo-4,7-methano-2H-isoindol-2-yl]-N-8-quinolinyl-benzamide, reference compound]",expression intensity of Rx::Venus,[2],high expression intensity of Rx::Venus
CNC1CCC(N(Cc2cccc(-c3ccncc3)c2)C(=O)c2sc3ccccc3c2Cl)CC1 (centres unmarked) [SAG],size of reformed aggregates versus only Y-27632,[3],larger aggregates were reformed
same,morphology of aggregates,"[4]; 0 nM and 30 nM SAG compared with 300 nM SAG at dd0, Day 26",aggregates were larger and a layer structure was clearer
same,expression of CD39 (FACS),[4]; 300 nM SAG at dd0,CD39 was expressed
same,expression of CXCR4 (FACS),[4]; 300 nM SAG at dd0,low expression of CXCR4 was observed
same,expression of dorsal marker ALDH1A1,[4]; addition of SAG on dd0,Decrease in expression of a dorsal marker ALDH1A1
same,expression of ventral marker CoupTF1,[4]; addition of SAG on dd0,increase in expression of a ventral marker CoupTF1
same,size of aggregates,[5],aggregates were larger
C[C@@H](N)[C@H]1CC[C@H](C(=O)Nc2ccncc2)CC1 [Y-27632],early aggregate reforming,[6],aggregates were reformed from Day 1 to Day 2
EGF: growth factor added at 20 ng/ml,maintenance of Rx::Venus-positive cells,[7],Rx::Venus-positive cells were widely maintained
"FGF2: fibroblast growth factor, FGF signaling pathway agonist",maintenance of Rx::Venus-positive cells,[7],Rx::Venus-positive cells were widely maintained
same,expression intensity of Rx::Venus,[2],high expression intensity of Rx::Venus

# — US20250019652A1, “PRODUCTION METHOD FOR SHEET-LIKE RETINAL TISSUE” (RIKEN, priority 2021, published 2025)
